Experimental data taken from patent publication US9370542B2, “Medical composition containing Stauntonia hexaphylla extract” (JEONNAM BIOINDUSTRY FOUNDATION, priority 2011, dated 2016).

System: fever induced by lipopolysaccharide (LPS)
Assay: LPS-induced fever, antipyretic effect of leaf extract (Example 9-1)
Format: in vivo, Sprague-Dawley male white rats
Procedure: Test animals were used to determine antipyretic effects of the Stauntonia Hexaphylla leaf extract and fractions thereof prepared in Example 1.
The test animals herein used were 5-week old Sprague-Dawley male white mice obtained from Samtako Inc. (Korea). The test animals were bred at a temperature of 20° C. to 24° C. and at a humidity of 60% to 70% under the day-night illumination condition at 12-hour intervals and were freely fed with water and feed. The feed used herein was a solid feed (Samyang Feed Co., Korea). The test animals were bred under the same conditions for 7 days, adapted to laboratory environments and then used for testing.
Specifically, 5 mice were randomly selected from the test animals and set as a first group, and 500 μg/kg of lipopolysaccharide (LPS, Sigma, USA) was intraperitoneally injected into the mice to induce fever. Body temperature was measured as follows. Rectal body temperature was measured using a rectal thermometer (Portable Thermocouple Thermometer (Physitemp Instruments, USA) and a stainless steel rectal probe for rats (Physitemp Instruments, USA) and body temperatures of SD mice were measured three times before the test to minimize an temperature increase caused by temperature measurement stress.
First, in order to determine antipyretic effects of the Stauntonia Hexaphylla leaf hot water extract, a negative control group (LPS) not treated with any sample, a first positive control group (APAP) orally administered with 50 mg/kg of acetaminophen (APAP, Sigma, USA), a conventional drug, found to have antipyretic effect, and a second positive control group (Dexamethasone) orally administered with 1 mg/kg of dexamethasone (Sigma, USA) were used.
First, 500 μg/kg of a fever-inducing substance (LPS) was intraperitoneally injected (i.p.) into the test animals that finished preparations for minimization of temperature increase caused by temperature measurement stress, and a non-treated group (LPS), a group (SHL-200) orally administered with 200 mg/kg of the Stauntonia Hexaphylla leaf hot water extraction, a group (APAP) orally administered with 50 mg/kg of acetaminophen, and a group (Dexamethasone) orally administered with 1 mg/kg of dexamethasone were prepared according to type of test groups. In addition, 200 mg/kg of the Stauntonia Hexaphylla leaf hot water extract was orally administered one hour after administration of the fever-inducing substance (SHL-200 (1 h)), and rectal temperatures were measured at one hour, 4 hours and 8 hours over 8 hours in total after the administration of the fever-inducing substance. The measurement results are shown in FIG. 12 and the following Table 3. Values of the following Table 3 mean body temperatures (° C.) measured at different times.

Structure (SMILES)	body temperature (rectal) (0 h, 50 mg/kg oral with LPS 500 μg/kg i.p.) [°C]	body temperature (rectal) (1 h, 50 mg/kg oral with LPS 500 μg/kg i.p.) [°C]	body temperature (rectal) (4 h, 50 mg/kg oral with LPS 500 μg/kg i.p.) [°C]	body temperature (rectal) (8 h, 50 mg/kg oral with LPS 500 μg/kg i.p.) [°C]	body temperature (rectal) (0 h, 1 mg/kg oral with LPS 500 μg/kg i.p.) [°C]	body temperature (rectal) (1 h, 1 mg/kg oral with LPS 500 μg/kg i.p.) [°C]	body temperature (rectal) (4 h, 1 mg/kg oral with LPS 500 μg/kg i.p.) [°C]	body temperature (rectal) (8 h, 1 mg/kg oral with LPS 500 μg/kg i.p.) [°C]
CC(=O)Nc1ccc(O)cc1 [APAP, acetaminophen]	37.2	36.58 ± 0.67	37.53 ± 0.59	37.78 ± 0.13				
C[C@@H]1C[C@H]2[C@@H]3CCC4=CC(=O)C=C[C@]4(C)[C@@]3(F)[C@@H](O)C[C@]2(C)[C@@]1(O)C(=O)CO [Dexamethasone, dexamethasone]					37.2	37.3 ± 0.52	37.6 ± 0.12	37.73 ± 0.13
